Reference: article PMC8068801, “Novel Benzenesulfonate Scaffolds with a High Anticancer Activity and G2/M Cell Cycle Arrest” (Cancers, 2021)

Assays:
[1] = tested on: PANC-1 cells; test: MTS cytotoxicity assay, PANC-1; type: cell-based, human; details: for IC50: Homo sapiens, PANC-1, 72 h incubation, MTS; for Selectivity index, PANC-1: NHDF vs PANC-1
Source text: (§1) M. Rusin from the Maria Sklodowska-Curie Memorial Cancer Centre and Institute of Oncology in Gliwice, Poland. […] G. Kramer-Marek from the Institute of Cancer Research in London, United Kingdom. The human suspension chronic myelogenous leukemia cell line K562 and pancreas ductal adenocarcinoma cell line PANC-1 were purchased from Sigma-Aldrich (St. Louis, MO, USA), while the normal human dermal fibroblasts cell line NHDF were purchased from PromoCell. […] Each medium contained a combination of two antibiotics: penicillin and streptomycin (1% v/v; Gibco). All of these cell lines were grown under standard conditions at 37 °C with a 5% CO2 humidified atmosphere. Moreover, all of the cell lines were routinely tested for mycoplasma using the PCR technique with specific Mycoplasma primers to confirm that there was no contamination.
(§2) The assay was performed following a 72 h incubation with the various concentrations of the tested compounds. Then, 100 µL DMEM without phenol red with 20 µL of the CellTiter 96®AQueous One Solution-MTS (Promega, Promega, WI, USA) was added to each well and incubated for 1 h or 3 h (PANC-1) at 37 °C. The optical densities of the samples were measured at 490 nm using a multi-plate reader (Synergy 4, BioTek, Winooski, VT, USA). […] Each individual compound was tested in triplicate in a single experiment with each experiment being performed three or four times.

[2] = tested on: NHDF cells; test: MTS cytotoxicity assay, normal fibroblasts NHDF; type: cell-based; details: NHDF normal human fibroblasts, 72 h incubation
Source text: as §1, §2

[3] = tested on: K562 cells; test: Annexin V binding (apoptosis) assay, K562; type: cell-based, human; details: K562, 5 µM, 48 h; 5.56% in the control cells
Experimental: The K562, U-251 and NHDF cells were seeded in 3 cm Petri dishes (Nunc) at a density of 250,000 cells per well and incubated at 37 °C for 24 h. Then, the medium was removed, and freshly prepared solutions of the tested compounds, BS1 and BS4 (two to three times the IC50 value), were added. After a 48 h incubation, the assays were performed using a FITC Annexin V Apoptosis Detection KIT with 7-AAD (Bio-Legend) according to the manufacturer’s instructions. Briefly, the cells were collected, washed twice with cold PBS and centrifuged at 300 g for 5 min. Next, the cells were resuspended in a 100 µL Annexin V Binding Buffer and incubated for 15 min at room temperature in the dark with 5 µL of FITC Annexin V and 5 µL 7-AAD Viability Staining Solution. After immunostaining, the number of events for live, early and late apoptotic cells were determined using a Muse Cell Analyzer. The experiments were performed at least four times.

[4] = tested on: K562 cells; test: MTS cytotoxicity assay, K562; type: cell-based, human; details: for IC50: Homo sapiens, K562, 72 h incubation, MTS; for Selectivity index, K562: normal fibroblasts NHDF vs K562
Source text: as §1, §2

[5] = tested on: U-251 cells; test: Cell cycle assay (Muse Cell-Cycle Kit), U-251; type: cell-based, human; details: 24 h
Experimental: The K562, U-251 and NHDF cells were seeded in 3 cm Petri dishes (Nunc) at a density of 250,000 cells per well and incubated under standard conditions at 37 °C for 24 h. […] After a 24 h treatment, the assays were performed using a Muse Cell-Cycle Kit (Millipore, Burlington, MA, USA) according to the supplier’s instructions. Briefly, the cells were collected, washed with cold PBS and centrifuged at 300 g for 5 min. Afterwards, the cells were fixed in ice cold 70% ethanol and stored at −20 °C overnight. The next day, the cells were washed with cold PBS, centrifuged and resuspended in 200 μL of the Muse™ Cell Cycle Reagent. The samples were incubated for 30 min at room temperature in the dark. After staining, the cellular subpopulation values in the individual cell cycle phases were estimated using a cell cycle analysis using a Muse Cell Analyzer (Millipore). The experiments were performed at least four times.

[6] = tested on: K562 cells; test: qRT-PCR mRNA expression, K562; type: cell-based, human; details: 24 h
Experimental: The total RNA was isolated from the K562 and U-251 cells using the TRIzol Reagent procedure (Ambion, Austin, TX, USA). Reverse transcription was performed with 5 μg of total RNA using a GoScript™ Reverse Transcriptase kit (Promega) and Oligo(dT)23 Primers (Sigma). Real-time PCR was performed using a CTX96 Touch™ Real-Time PCR Detection System (Biorad, Hercules, CA, USA) in a 20 μL reaction volume. The reaction consisted of SsoAdvanced™ Universal SYBR® Green Supermix (Biorad), a specific primer pair mix (0.5 μM each) and 1 μL of cDNA. The reaction was performed under the following conditions: initial denaturation at 95 °C for 30 s; followed by 40 denaturation cycles at 95 °C, 15 s; annealing (primer-specific temperature for 30 s) and extension at 72 °C for 60 s. The obtained results were analyzed based on a comparison of the expression of the target genes to the reference gene, GAPDH, using the 2^−ΔΔCT method. The experiments were performed at least four times.

[7] = tested on: U-251 cells; test: MTS cytotoxicity assay, U-251; type: cell-based, human; details: for IC50: Homo sapiens, U-251, 72 h incubation, MTS; for Selectivity index, U-251: NHDF vs U-251
Source text: as §1, §2

Row | Compound | IC50 [1] | Selectivity index, PANC-1 [1] | IC50 [2] | Total (early and late) apoptotic cells [3] | IC50 [4] | Selectivity index, K562 [4] | Cells in G2/M phase, mean ± SD ([5]; U-251, 4 µM) | Cells in G0/G1 phase, mean ± SD ([5]; U-251, 6 μM) | Cells in G2/M phase, mean ± SD ([5]; U-251, 6 μM) | Cells in S phase, mean ± SD ([5]; U-251, 6 μM) | Decrease in the IDH1 mRNA level ([6]; K562, 0.5 μM) | p62 mRNA level ([6]; K562, 0.5 μM) | IC50 [7] | Selectivity index, U-251 [7] | Increase in the fraction of cells in the G2/M phase compared to the control ([5]; U-251, 4 µM) | Increase in the fraction of cells in the G2/M phase compared to the control ([5]; U-251, 6 μM) | LC3 transcript levels ([6]; K562, 0.35 µM) | Decrease in the IDH1 mRNA level ([6]; K562, 0.5 µM and 0.35 µM) | GADD45α mRNA expression ([6]; K562, 0.5 μM)
1 | COc1ccccc1/C=C/c1nc(OS(=O)(=O)c2ccc3c(c2)OCO3)c2ccccc2n1 [BS1, 2-((E)-2-(2-methoxyphenyl)ethenyl)quinazolin-4-yl 1,3-benzodioxole-5-sulfonate] | 3.98 ± 0.597 µM | 3.15 | 12.5 ± 0.855 µM | 31.99% | 0.172 ± 0.034 µM | 72.91 | 85.40% | 1.52% | 90.68% | 1.52% | ~2.4 fold | about three-fold | 1.9 ± 0.649 µM | 6.61 |  |  |  |  | 
2 | COc1ccccc1/C=C/c1nc(OS(=O)(=O)c2cc3c(cc2Br)OCO3)c2ccccc2n1 [BS2, 2-((E)-2-(2-methoxyphenyl)ethenyl)quinazolin-4-yl 6-bromo-1,3-benzodioxole-5-sulfonate] | 2.91 ± 0.622 µM | 5.39 | 15.7 ± 1.41 µM |  | 0.246 ± 0.055 µM | 63.70 |  |  |  |  |  |  | 2.3 ± 0.234 µM | 6.80 |  |  |  |  | 
3 | COc1ccccc1/C=C/c1nc(OS(=O)(=O)c2ccc(C)cc2)c2ccccc2n1 [BS4, 2-((E)-2-(2-methoxyphenyl)ethenyl)quinazolin-4-yl 4-methylbenzenesulfonate] | 0.235 ± 0.042 µM | 106.38 | > 25 µM | 26.51% | 0.173 ± 0.031 µM | 144.51 |  |  |  |  |  |  | 1.91 ± 0.214 µM | 13.11 | ~23.1% | about 40.92% | decreased | about a two-fold decrease | almost two-fold decrease
